Source: patent US8017584B2, “GD3-mimetic peptides” (Otsuka Pharmaceutical Co., Ltd., priority 2000, dated 2011)
Several values for one entry are separate records, joined by “and”; a condition that tells them apart may be missing. Equal entries are not always repeated.

What was measured:
Anti-OAcGD3 antibody = assay: ELISA of immobilized MAP-form peptides with control anti-OAcGD3 antibody; assay type: binding; conditions: MAP form 100 ng/well
Experimental: A 0.1M NaHCO3 solution containing a GD3-mimetic peptide of the invention in the above MAP form (100 ng/100 μL) was added to the wells of a 96-well micro-titer plate, for immobilization at room temperature for one hour. Subsequently, in a manner similar to the ELISA method employed in Example 2, binding affinity of the GD3-mimetic peptide to GD3 antibody 4F6 was investigated.
Anti-GD2 antibody and anti-OAcGD3 antibody (Cerato, E., et al., Hybridoma, 16(4), 307-316 (1997)) were used as controls (these antibodies were kindly provided by from Dr. Portoukalian).

[1] = Titer against GD3 (ELISA) of antiserum from mice immunized with MAP peptides (Example 4); assay type: in vivo, mice (C57BL/6); conditions: individual mice
Experimental: Four species of GD3-mimetic peptide (MAP) obtained in Example 3 (2) was dissolved in PBS so as to attain a concentration of 200 μg/mL. The solution was added to Freund's complete (or incomplete) adjuvant (1:1, by volume), to thereby prepare an emulsion.
Eight mice (C57BL/6) were immunized by subcutaneous administration of the above emulsion (0.2 mL/mouse, in one administration, […]). Administration was performed every two weeks (for the second and subsequent administrations, Freund's incomplete adjuvant was used). After one week following respective administrations, blood was collected from the tail of each mouse, to thereby yield antiserum.
The antiserum obtained directly after the first administration will be referred to “1-st,” that obtained after the second administration will be referred to “2-nd,” and that obtained after the third administration will be referred to “3-rd.”
The titer, against GD3, of each of the antiserum samples (3×8 mice=24 samples) obtained in the (1) above was measured through ELISA as described below.
The thus-obtained purified GD3 was dissolved in methanol, whereby a GD3 solution having a concentration of 10 μg/mL was prepared. The GD3 solution was added to the wells of a 96-well micro-titer plate in amounts of 10 μL per well (which corresponds to 100 ng GD3 per well), and methanol was evaporated. Subsequently, a blocking solution (TBS supplemented with 1% BSA) was added to the wells in amounts of 50 μL per well, for blocking at 37° C. for 4 hours.
The supernatant was discarded. Each of the antiserum samples obtained in (1) above was diluted 100-fold, 400-fold, or 1,600 fold with the above-mentioned blocking solution. The diluted antiserum (50 μL) was added to each well for reaction at 4° C. overnight. The well was washed six times with TBS, and thereafter, HRP-labeled […] diluted 5,000-fold with the blocking solution was added (50 μL per well) for reaction for 2 hours at room temperature. The well was washed four times with TBS, and thereafter, enzymatic activity (peroxidase) of the well was detected with TMB solution (50 μL). The reaction was stopped with 1N HCl (50 μL), and the value corresponding to “420 nm-620 nm” was calculated.
A control sample was prepared as follows. […] The synthesized peptide was administered to a mouse for immunization, and the obtained antiserum served as a control sample. The titer of the control sample was obtained in a manner similar to that described above. (However, the number of provided mice was five, and only a 100-fold diluted solution was used.) This control peptide sample was also used in the form of MAP as described above.

anti-GD3 antibody 4F6 = assay: ELISA of MAPs immobilized at various amounts with 4F6 (Example 5(2), FIG. 3); assay type: binding, mouse; conditions: MAPs or GD3 immobilized at various amounts
From the text: (1) In a manner similar to that described in Example 3, peptides of N-terminus 9 amino acid residues or C-terminus 9 amino acid residues of GD3R1, GD3R2, GD3R3, or GD3R4. The nomenclature and sequences of respective peptides employed in the present test are shown in FIG. 2 These were employed as multi-antigen peptides (MAPs). (2) In order to extend the research on bonding between the anti-GD3 antibody 4F6 and each of the GD3-mimetic peptides shown in FIG. 1, multi-antigen peptides (MAPs) were subjected to ELISA. MAP samples having a variety of concentrations shown on the X-axis in FIG. 3 were provided, and each sample was immobilized onto the wells of a 96-well plate. Subsequently, the wells were blocked with a blocking solution (TBS supplemented with 1% BSA, 0.1% skim milk, and 0.02% Tween 20) at 4° C. overnight. 4F6 (hybridoma supernatant: used in the neat form) was added (100 μL/well) for reaction at room temperature for 2 hours. After completion of reaction, the supernatant was discarded, and the wells were washed with a washing solution (TBS supplemented with 1% FBS and 0.05% Tween 20) six times. Subsequently, the wells were allowed to react with peroxidase-labeled anti-mouse IgG (diluted 1,000-fold with a blocking solution) at room temperature for 2 hours. The wells were again washed with a washing solution four times, and the amount of peroxidase enzyme remaining in each well was detected and quantitatively determined with the substrate TMB, whereby binding of MAP to 4F6 was investigated. The test was performed in triplicate, and the values in the graph are “mean ±SD.”

[2] = test system: binding between GD3 and 4F6; assay: Inhibition by exogenously added MAPs of binding between GD3 and 4F6 (Example 5(4), FIG. 5); parameters: species or system mouse
Experimental: (4) Next, investigation was made as to whether binding between GD3R3 or GD3R4 and 4F6 occurred at the GD3 binding site of 4F6. To the wells of a plate to which GD3 had been immobilized (100 ng/well), each of the MAP samples having a variety of concentrations shown on the X-axis in FIG. 5 and 4F6 (100 μL/well) were simultaneously added, whereby an inhibitory test was performed. The test was performed in triplicate, and the values in the graph are “mean ±SD.”

[3] = test system: binding between GD3 and 4F6 (anti-GD3 antibody); assay: Inhibition by immobilized MAPs of binding between GD3 and 4F6 (Example 5(3), FIG. 4); parameters: species or system mouse; conditions: immobilized MAP or GD3 absorbs 4F6
Experimental: (3) The binding affinity shown in FIG. 3 was investigated in another method. Briefly, MAP samples having a variety of concentrations shown on the X-axis in FIG. 4 were provided. Each sample was immobilized onto the wells of a 96-well plate, and the wells were allowed to react with 4F6 (100 μL/well) at 4° C. overnight. On the following day, the supernatant (80 μL) was collected and added to the wells of another plate to which GD3 had been immobilized in advance (100 ng/well) for reaction at room temperature for 2 hours. After completion of reaction, the amount of antibody 4F6 that had been condensed with GD3 (i.e., that had not been absorbed by MAP) was detected and quantitatively determined through the method described (2) above, whereby inhibitory effect of MAP on binding of GD3 to 4F6 was investigated. The test was performed in triplicate, and the values in the graph are “mean ±SD.”

[4] = antiserum 1st (after first administration), dilution factor 1/100, MAP 5 μg/mouse s.c.
[5] = antiserum 1st, dilution factor 1/400
[6] = antiserum 1st, dilution factor 1/1600
[7] = antiserum 2nd (after second administration), dilution factor 1/100
[8] = antiserum 2nd, dilution factor 1/400
[9] = antiserum 2nd, dilution factor 1/1600
[10] = antiserum 3rd (after third administration), dilution factor 1/100
[11] = antiserum 3rd, dilution factor 1/400
[12] = antiserum 3rd, dilution factor 1/1600

Sequence | ELISA absorbance, Anti-OAcGD3 antibody (Anti-OAcGD3 antibody; Serum % 12.50%) | ELISA absorbance, Anti-OAcGD3 antibody (Anti-OAcGD3 antibody; Serum % 25%) | ELISA absorbance, Anti-OAcGD3 antibody (Anti-OAcGD3 antibody; Serum % 50%) | ELISA absorbance, Anti-OAcGD3 antibody (Anti-OAcGD3 antibody; Serum % 100%) | reactivity of antiserum with GD3 (ELISA absorbance) [1, 4] | reactivity of antiserum with GD3 (ELISA absorbance) [1, 5] | reactivity of antiserum with GD3 (ELISA absorbance) [1, 6] | reactivity of antiserum with GD3 (ELISA absorbance) [1, 7] | reactivity of antiserum with GD3 (ELISA absorbance) [1, 8] | reactivity of antiserum with GD3 (ELISA absorbance) [1, 9] | reactivity of antiserum with GD3 (ELISA absorbance) [1, 10] | reactivity of antiserum with GD3 (ELISA absorbance) [1, 11] | reactivity of antiserum with GD3 (ELISA absorbance) [1, 12] | binding of 4F6 to immobilized sample (words, FIG. 3) (anti-GD3 antibody 4F6) | inhibitory effect of exogenously added sample on binding between GD3 and 4F6 (words, FIG. 5) ([2]; added simultaneously with 4F6 to GD3 100 ng/well) | order of binding strength to 4F6 ([2]; deduced from FIG. 5) | binding to anti-GD3 antibody 4F6, overall conclusion ([2]; taken together, Example 5) | inhibition of GD3 binding to 4F6 by immobilized sample (words, FIG. 4) [3]
PHFDSLLYPCELLGC (PHFDSLLYPCQLLGC) [GD3R2, tested as phage clone, MAP form or peptide] | 0.021 | 0.023 | 0.027 | 0.038 | 0.042 and 0.114 and 0.087 and 0.155 and 0.076 and 0.084 and 0.316 and 0.062 | 0.031 and 0.068 and 0.05 and 0.078 and 0.055 and 0.044 and 0.252 and 0.035 | 0.053 and 0.028 (2×) and 0.045 and 0.014 and 0.034 and 0.179 and 0.022 | 0.183 and 0.135 and 0.142 and 0.131 and 0.115 and 0.072 and 0.069 and 0.34 | 0.078 and 0.049 and 0.071 and 0.034 and 0.091 and 0.039 and 0.047 and 0.241 | 0.039 and 0.035 and 0.025 and 0.016 (2×) and 0.033 and 0.034 and 0.13 | 0.08 and 0.053 and 0.057 and 0.184 and 0.09 and 0.05 and 0.098 and 0.113 | 0.075 and 0.053 and 0.084 and 0.161 and 0.089 and 0.059 and 0.086 and 0.099 | 0.023 (2×) and 0.014 and 0.008 and 0.053 and 0.028 and 0.012 and 0.036 |  |  |  |  | 
GLAPPDYAERFELLS [GD3R3, tested as phage clone, MAP form or peptide] | 0.031 | 0.026 | 0.031 | 0.044 | 0.105 and 0.062 (2×) and 0.098 and 0.051 and 0.04 and 0.165 and 0.169 | 0.077 and 0.004 and 0.048 and 0.016 and 0.026 and 0.067 and 0.071 and 0.083 | 0.009 and 0.016 and 0.006 and 0.023 and 0.003 and 0.031 and 0.015 and 0.017 | 0.116 and 0.098 and 0.08 (2×) and 0.165 and 0.132 and 0.135 and 0.179 | 0.078 and 0.079 and 0.112 and 0.118 and 0.088 (2×) and 0.076 and 0.054 | 0.025 (2×) and 0.034 and 0.022 and 0.027 and 0.018 and 0.07 and 0.024 | 0.126 and 0.143 and 0.069 and 0.189 (2×) and 0.073 and 0.098 and 0.047 | 0.039 and 0.032 and 0.028 and 0.073 and 0.033 and 0.03 and 0.023 and 0.022 | 0.027 and 0.026 and 0.018 (3×) and 0.017 and 0.013 and 0.016 | in an amount-dependent manner | exhibited inhibitory effect | GD3>GD3R3>GD3R4 | the strongest in binding | inhibit GD3 from binding to the antibody
LAPPRPRSELVFLSV (LAPPRPRSQLVFLSV) [GD3R1, tested as phage clone, MAP form or peptide] | 0.04 | 0.041 | 0.046 | 0.053 | 0.047 and 0.106 and 0.03 and 0.055 and 0.059 and 0.061 and 0.034 and 0.052 | 0.026 and 0.057 and 0.024 and 0.052 and 0.034 and 0.027 and 0.017 and 0.039 | 0 (3×) and 0.005 and 0.008 and 0.016 and 0.004 and 0.007 | 0.087 and 0.14 and 0.188 and 0.102 and 0.117 and 0.168 and 0.054 and 0.082 | 0.027 and 0.063 and 0.088 and 0.074 and 0.047 and 0.06 and 0.039 and 0.026 | 0.016 and 0.022 and 0.034 and 0.019 (2×) and 0.014 and 0.024 and 0.01 | 0.068 and 0.066 and 0.084 (2×) and 0.139 and 0.121 and 0.08 and 0.023 | 0.019 and 0.017 and 0.03 (2×) and 0.054 and 0.021 and 0.051 and 0.01 | 0 (2×) and 0.002 and 0.008 and 0.003 (2×) and 0.001 and 0.004 |  |  |  |  | 
